pIC50: −log10 of the molar value. Structures can show the parent of a compound that is named as a salt.
Experiments:
[1] = target: T1, human neurokinin-3 receptors expressed in CHO cell lines (Homo sapiens, UniProt P29371); experiment: Binding affinity in hNK-3-CHO; conditions: human NK-3 receptors in CHO cell lines; radioligand [125I]-[Me-Phe7]-NKB
T1 construct: expressed in transfected cells; host or cells: CHO cells
T1 sequence (P29371 1-465): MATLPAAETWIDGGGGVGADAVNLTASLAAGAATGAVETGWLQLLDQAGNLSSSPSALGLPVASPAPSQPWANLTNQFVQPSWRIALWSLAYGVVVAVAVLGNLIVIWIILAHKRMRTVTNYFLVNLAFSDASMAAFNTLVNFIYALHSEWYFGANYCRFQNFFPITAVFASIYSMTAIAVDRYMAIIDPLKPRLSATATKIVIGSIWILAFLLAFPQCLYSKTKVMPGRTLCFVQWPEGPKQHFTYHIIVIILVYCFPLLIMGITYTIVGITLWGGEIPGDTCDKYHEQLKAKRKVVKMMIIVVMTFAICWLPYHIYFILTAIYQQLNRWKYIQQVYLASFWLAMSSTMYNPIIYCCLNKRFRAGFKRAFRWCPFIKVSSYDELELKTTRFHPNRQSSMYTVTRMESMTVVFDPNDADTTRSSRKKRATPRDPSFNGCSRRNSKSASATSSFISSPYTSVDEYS
Description: The activity of the compounds of the present invention, as NK3 ligands, is determined by their ability to inhibit the binding of the radiolabelled NK3 ligands. [^125I]-[Me-Phe^7]-NKB or [^3H]-Senktide, to guinea-pig and human NK3 receptors (Renzetti et al. 1991, Neuropeptide, 18, 104-114; Buell et al, 1992, FEBS, 299(1), 90-95; Chung et al, 1994, Biochem. Biophys. Res. Commun., 198(3), 967-972).
The binding assays utilized allow the determination of the concentration of the individual compound required to reduce by 50% the [^125I]-[Me-Phe^7]-NKB and [^3H]-Senktide specific binding to NK3 receptor in equilibrium conditions (IC50).
Binding assays provide for each compound tested a mean IC50 value of 2-5 separate experiments performed in duplicate or triplicate. […] The NK3-antagonist activity of the compounds of the present invention is determined by their ability to inhibit senktide-induced contraction of the guinea-pig ileum (Maggi et al, 1990, Br. J. Pharmacol., 101, 996-1000) and rabbit isolated iris sphincter muscle (Hall et al., 1991, Eur. J. Pharmacol., 199, 9-14) and human NK3 receptors-mediated Ca^++ mobilization (Mochizuki et al. 1994, J. Biol. Chem., 269, 9651-9658). Guinea-pig and rabbit in-vitro functional assays provide for each compound tested a mean KB value of 3-8 separate experiments, where KB is the concentration of the individual compound required to produce a 2-fold rightward shift in the concentration-response curve of senktide. Human receptor functional assay allows the determination of the concentration of the individual compound required to reduce by 50% (IC50 values) the Ca^++ mobilization induced by the agonist NKB. In this assay, the compounds of the present invention behave as antagonists.

Compound `CC[C@H](NC(=O)c1c(OCCO)c(-c2ccccc2)nc2ccccc12)c1ccccc1` [Example 2, (S)-N-(α-ethylbenzyl)-3-(2-hydroxyethoxy)-2-phenylquinoline-4-carboxamide] has a pIC50 [1] of 8.80.

For `CC[C@H](NC(=O)c1c(OCCCN2CCN(c3ncccn3)CC2)c(-c2ccccc2)nc2ccccc12)c1ccccc1` (as salt: HCl) [Example 40], the melting point was 140 °C (dec.).

In the case of `CC[C@H](NC(=O)c1c(OCCCN2CCN(c3ccccc3)CC2)c(-c2ccccc2)nc2ccccc12)c1ccccc1` (as salt: HCl) [Example 33], the melting point was 86 °C (dec.).

Work on `CC[C@H](NC(=O)c1c(OCCCN2C(=O)c3ccccc3C2=O)c(-c2ccccc2)nc2ccccc12)c1ccccc1` [Example 9, (S)-N-(α-ethylbenzyl)-3-(3-phthalimidopropoxy)-2-phenylquinoline-4-carboxamide] yielded a pIC50 [1] of 8.49 and a melting point of 125 to 128 °C.

For `CC[C@H](NC(=O)c1c(OCCCN2CCN(c3cccc(Cl)c3)CC2)c(-c2ccccc2)nc2ccccc12)c1ccccc1` [Example 34], the pIC50 [1] was 9.10 and the melting point was 115 to 135 °C.

`CC[C@H](NC(=O)c1c(OCCCN2CCN(c3ccccc3)CC2)c(-c2ccccc2)nc2ccccc12)c1ccccc1` [Example 33] showed a pIC50 [1] of 9.15.

For `CC[C@H](NC(=O)c1c(OCCN2C(=O)CCC2=O)c(-c2ccccc2)nc2ccccc12)c1ccccc1` [Example 15, (S)-N-(α-ethylbenzyl)-3-(2-succinimidoethoxy)-2-phenylquinoline-4-carboxamide], the melting point was 80 °C (dec.).

In the case of `CC[C@H](NC(=O)c1c(OCCN2C(=O)[C@@H](c3ccccc3)NC2(C)C)c(-c2ccccc2)nc2ccccc12)c1ccccc1` [Example 21, (S)-N-(α-ethylbenzyl)-3-{2-[2,2-dimethyl-5-(R)-phenyl-4-oxo-3-imidazolidinyl]ethoxy}-2-phenylquinoiine-4-carboxamide], the pIC50 [1] was 9.05 and the melting point was 147 to 150 °C.

With `CC[C@H](NC(=O)c1c(OCCN2C(=O)Cc3ccccc3C2=O)c(-c2ccccc2)nc2ccccc12)c1ccccc1` [Example 6, (S)-N-(α-ethylbenzyl)-3-(2-homophthalimidoethoxy)-2-phenylquinoline-4-carboxamide] the pIC50 [1] was 9.10 and the melting point was 159 to 161 °C.

With `CC[C@H](NC(=O)c1c(OCCCN2CCN(C)CC2)c(-c2ccccc2)nc2ccccc12)c1ccccc1` [Example 31] the pIC50 [1] was 8.48.

For `CC[C@H](NC(=O)c1c(OCCN2CCc3ccccc3C2=O)c(-c2ccccc2)nc2ccccc12)c1ccccc1` [Example 22, (S)-N-(α-ethylbenzyl)-3-[2-(3,4-dihydro-1(2H)-isoquinolinon-2-yl)ethoxy]-2-phenylquinoline-4-carboxamide], the pIC50 [1] was 8.89 and the melting point was 71 °C (dec.).

Compound `CC[C@H](NC(=O)c1c(OCCN2Cc3ccccc3CC2=O)c(-c2ccccc2)nc2ccccc12)c1ccccc1` [Example 14, (S)-N-(α-ethylbenzyl)-3-[2-(1,4-dihydro-3(2H)-isoquinolinon-2-yl)ethoxy]-2-phenylquinoline-4-carboxamide] has a pIC50 [1] of 8.77 and a melting point of 153 to 156 °C.

For `CC[C@H](NC(=O)c1c(OCCCN2CCN(C)CC2)c(-c2ccccc2)nc2ccccc12)c1ccccc1` (as salt: HCl) [Example 31], the melting point was 160 to 170 °C.

In the case of `CC[C@H](NC(=O)c1c(OCCCN2CCN(c3ccccc3OC)CC2)c(-c2ccccc2)nc2ccccc12)c1ccccc1.Cl.Cl` [Example 18, (S)-N-(α-ethylbenzyl)-3-{3-[4-(2-methoxyphenyl)piperazin-1-yl]propoxy}-2-phenylquinoline-4-carboxamide Dihydrochloride], the pIC50 [1] was 9.40 and the melting point was 151 to 155 °C.

`CC[C@H](NC(=O)c1c(OCCCN2C(=O)c3nccnc3C2=O)c(-c2ccccc2)nc2ccccc12)c1ccccc1` [Example 42] gave a pIC50 [1] of 8.57 and a melting point of 100 to 105 °C.

Compound `CC[C@H](NC(=O)c1c(OCCN2C(=O)C=CC2=O)c(-c2ccccc2)nc2ccccc12)c1ccccc1` [Example 16, (S)-N-(α-ethylbenzyl)-3-(2-maleimidoethoxy)-2-phenylquinoline-4-carboxamide] has a melting point of 74 to 78 °C.

With `CC[C@H](NC(=O)c1c(OCCCN2CCN(c3ncccn3)CC2)c(-c2ccccc2)nc2ccccc12)c1ccccc1` [Example 40] the pIC50 [1] was 8.96.

Work on `CC[C@H](NC(=O)c1c(OCCN2C(=O)CNC2(C)C)c(-c2ccccc2)nc2ccccc12)c1ccccc1` [Example 17, (S)-N-(α-ethylbenzyl)-3-[2-(2,2-dimethyl-4-oxo-3-imidazolidinyl)ethoxy]-2-phenylquinoline-4-carboxamide] yielded a pIC50 [1] of 8.47 and a melting point of 160 to 162 °C.

With `CC[C@H](NC(=O)c1c(OCCN2Cc3ccccc3C2)c(-c2ccccc2)nc2ccccc12)c1ccccc1.Cl.Cl` [Example 5, (S)-N-(α-ethylbenzyl)-3-[2-(2-isoindolinyl)ethoxy]-2-phenylquinoline-4-carboxamide Dihydrochloride] the pIC50 [1] was 8.92 and the melting point was 95 °C (dec.).

Compound `CC[C@H](NC(=O)c1c(OCCCN)c(-c2ccccc2)nc2ccccc12)c1ccccc1` [Example 11, (S)-N-(α-ethylbenzyl)-3-(3-aminopropoxy)-2-phenylquinoline-4-carboxamide Hydrochloride] has a pIC50 [1] of 8.59.

`CC[C@H](NC(=O)c1c(CN2CCN(c3ccccc3)CC2)c(-c2ccccc2)nc2ccccc12)c1ccccc1` [Example 30] showed a pIC50 [1] of 8.96 and a melting point of 142 to 145 °C.

Reference: patent US20020068827A1, “Quinoline-4-carboxamide derivatives, their preparation and their use as neurokinin 3 ( NK-3 ) - and neurokinin 2 ( NK-3 ) receptor antagonists” (SmithKline Beecham S.p.A., priority 1995, published 2002)
